{"source": "patent US9732087B2", "about": "“Diamino-pyridine, pyrimidine, and pyridazine modulators of the histamine H4 receptor” (JANSSEN PHARMACEUTICA NV, priority 2008, dated 2017)", "data": [{"biological_target": "human H4 receptor (Homo sapiens (Human), UniProt Q9H3N8)", "sequence (Q9H3N8 whole entry)": "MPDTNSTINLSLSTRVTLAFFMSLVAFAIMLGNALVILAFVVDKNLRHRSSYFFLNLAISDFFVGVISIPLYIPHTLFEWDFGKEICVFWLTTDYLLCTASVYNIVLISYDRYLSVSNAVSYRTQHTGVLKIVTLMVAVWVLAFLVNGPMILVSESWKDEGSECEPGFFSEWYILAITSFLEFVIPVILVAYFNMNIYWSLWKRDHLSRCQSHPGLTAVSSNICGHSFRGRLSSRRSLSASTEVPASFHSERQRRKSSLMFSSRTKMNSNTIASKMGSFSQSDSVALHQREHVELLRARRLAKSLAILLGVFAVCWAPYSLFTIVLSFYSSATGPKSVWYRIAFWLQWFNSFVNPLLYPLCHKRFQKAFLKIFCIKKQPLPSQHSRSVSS", "assay": "Binding assay on recombinant human histamine H4 receptor ([3H]histamine competition, SK-N-MC cell membranes)", "conditions": "membranes harvested with cell harvester; [3H]histamine 10 nM; average of results; read-out: Cell Harvester Ki", "procedure,_shortened": "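Scintillation counting of filter-bound [3H]histamine after rapid harvesting on 0.5% PEI-treated GF/C filters with ice-cold Tris/EDTA washes. Receptor source: 30,000 g membrane pellets of SK-N-MC cells stably or transiently expressing human H4. Values shown as '>' are the top concentration tested.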", "units": {"Ki": "nM"}, "values": [{"smiles": "C[C@@H](Nc1cc(N2C[C@H]3CCN[C@H]3C2)ccn1)C1CCCCC1", "note": "[Example 271, N-[(1R)-1-Cyclohexylethyl]-4-[(3aR,6aR)-hexahydropyrrolo[3,4-b]pyrrol-5(1H)-yl]pyridin-2-amine]", "Ki": 189}, {"smiles": "CC1C(Nc2cc(N3CC[C@H](N)C3)ccn2)C[C@H]2C[C@@H]1C2(C)C", "note": "(stereo partly drawn) [Example 272, 4-[(3S)-3-Aminopyrrolidin-1-yl]-N-[(1S,5R)-2.6.6-trimethylbicyclo[3.1.1]hept-3-yl]pyridin-2-amine]", "Ki": 2100}, {"smiles": "CC(C)(O)CNc1cc(N2CC[C@H](N)C2)ccn1", "note": "[Example 273, 1-({4-[(3S)-3-Aminopyrrolidin-1-yl]pyridin-2-yl}amino)-2-methylpropan-2-ol]", "Ki": 3170}, {"smiles": "N[C@@H]1CCN(c2ccnc(NC3CCCCC3)c2)C1", "note": "[Example 274, 4-[(3R)-3-Aminopyrrolidin-1-yl]-N-cyclohexylpyridin-2-amine]", "Ki": 10.6}, {"smiles": "CNC1CN(c2ccnc(NCC3CCCC3)c2)C1", "note": "[Example 275, N-(Cyclopentylmethyl)-4-[3-(methylamino)azetidin-1-yl]pyridin-2-amine]", "Ki": 8.55}, {"smiles": "N[C@H]1CCN(c2ccnc(NCCc3ccccc3)c2)C1", "note": "[Example 276, 4-[(3S)-3-Aminopyrrolidin-1-yl]-N-(2-phenylethyl)pyridin-2-amine]", "Ki": 1640}, {"smiles": "c1cc(N2C[C@H]3CCN[C@H]3C2)cc(NC2CCOCC2)n1", "note": "[Example 277, 4-[(3aR,6aR)-Hexahydropyrrolo[3,4-b]pyrrol-5(1H)-yl]-N-(tetrahydro-2H-pyran-4-yl)pyridin-2-amine]", "Ki": 97}, {"smiles": "N[C@@H]1CCN(c2ccnc(NCC3CCCC3)c2)C1", "note": "[Example 278, 4-[(3R)-3-Aminopyrrolidin-1-yl]-N-(cyclopentylmethyl)pyridin-2-amine]", "Ki": 7.29}, {"smiles": "CC(C)(O)CNc1cc(N2CC[C@@H](N)C2)ccn1", "note": "[Example 279, 1-({4-[(3R)-3-Aminopyrrolidin-1-yl]pyridin-2-yl}amino)-2-methylpropan-2-ol]", "Ki": 276}, {"smiles": "CNC1CN(c2ccnc(NC(C)(C)C)c2)C1", "note": "[Example 280, N-tert-Butyl-4-[3-(methylamino)azetidin-1-yl]pyridin-2-amine]", "Ki": 9.96}, {"smiles": "CNC1CN(c2ccnc(NC3CC3)c2)C1", "note": "[Example 281, N-Cyclopropyl-4-[3-(methylamino)azetidin-1-yl]pyridin-2-amine]", "Ki": 21.3}, {"smiles": "CNC1CN(c2ccnc(NCC(C)(C)O)c2)C1", "note": "[Example 282, 2-Methyl-1-({4-[3-(methylamino)azetidin-1-yl]pyridin-2-yl}amino)propan-2-ol]", "Ki": 173}, {"smiles": "CNC1CN(c2ccnc(NCCCO)c2)C1", "note": "[Example 283, 3-({4-[3-(Methylamino)azetidin-1-yl]pyridin-2-yl}amino)propan-1-ol]", "Ki": 162}, {"smiles": "CNC1CN(c2ccnc(NC3C[C@H]4C[C@@H](C3C)C4(C)C)c2)C1", "note": "(stereo partly drawn) [Example 284, 4-[3-(Methylamino)azetidin-1-yl]-N-[(1S,5R)-2,6,6-trimethylbicyclo[3.1.1]hept-3-yl]pyridin-2-amine]", "Ki": 42.3}, {"smiles": "CNC1CN(c2ccnc(NCc3ccccc3)c2)C1", "note": "[Example 285, N-Benzyl-4-[3-(methylamino)azetidin-1-yl]pyridin-2-amine]", "Ki": 141}, {"smiles": "CNC1CN(c2ccnc(NCCOC)c2)C1", "note": "[Example 286, N-(2-Methoxyethyl)-4-[3-(methylamino)azetidin-1-yl]pyridin-2-amine]", "Ki": 88.3}, {"smiles": "CC1C(Nc2cc(N3C[C@H]4CCN[C@H]4C3)ccn2)C[C@H]2C[C@@H]1C2(C)C", "note": "(stereo partly drawn) [Example 287, 4-[(3aR,6aR)-Hexahydropyrrolo[3,4-b]pyrrol-5(1H)-yl]-N-[(1S,5R)-2,6,6-trimethylbicyclo[3.1.1]hept-3-yl]pyridin-2-amine]", "Ki": 98.9}, {"smiles": "CC(C)(C)Nc1cc(N2C[C@H]3CCN[C@H]3C2)ccn1", "note": "[Example 288, N-tert-Butyl-4-[(3aR,6aR)-hexahydropyrrolo[3,4-b]pyrrol-5(1H)-yl]pyridin-2-amine]", "Ki": 39.5}, {"smiles": "COCCNc1cc(N2CC[C@@H](N)C2)ccn1", "note": "[Example 289, 4-[(3R)-3-Aminopyrrolidin-1-yl]-N-(2-methoxyethyl)pyridin-2-amine]", "Ki": 410}, {"smiles": "CC(C)(O)CNc1cc(N2CCNCC2)ccn1", "note": "[Example 290, 2-Methyl-1-[(4-piperazin-1-ylpyridin-2-yl)amino]propan-2-ol]", "Ki": 1480}, {"smiles": "CC1(C)[C@H]2CC[C@H](CNc3cc(N4C[C@H]5CCN[C@H]5C4)ccn3)[C@@H]1C2", "note": "[Example 291, N-{[(1S,2S,5S)-6,6-Dimethylbicyclo[3.1.1]hept-2-yl]methyl}-4-[(3aR,6aR)-hexahydropyrrolo[3.4-b]pyrrol-5(1H)-yl]pyridin-2-amine]", "Ki": 239}, {"smiles": "N[C@@H]1CCN(c2ccnc(NC3CCCC3)c2)C1", "note": "[Example 292, 4-[(3R)-3-Aminopyrrolidin-1-yl]-N-cyclopentylpyridin-2-amine]", "Ki": 7.01}, {"smiles": "CC(C)(C)CNc1cc(N2C[C@H]3CCN[C@H]3C2)ccn1", "note": "[Example 293, N-(2,2-Dimethylpropyl)-4-[(3aR,6aR)-hexahydropyrrolo[3,4-b]pyrrol-5(1H)-yl]pyridin-2-amine]", "Ki": 60.9}, {"smiles": "CNC1CN(c2ccnc(NCCc3ccccc3)c2)C1", "note": "[Example 294, 4-[3-(Methylamino)azetidin-1-yl]-N-(2-phenylethyl)pyridin-2-amine]", "Ki": 103}, {"smiles": "CNC1CN(c2ccnc(NCc3ccc(F)cc3)c2)C1", "note": "[Example 295, N-(4-Fluorobenzyl)-4-[3-(methylamino)azeidin-1-yl]pyridin-2-amine]", "Ki": 163}, {"smiles": "c1cc(N2C[C@H]3CCN[C@H]3C2)cc(NC23CC4CC(CC(C4)C2)C3)n1", "note": "[Example 296, Adamantan-1-yl-[4-(3aR,6aR)-(hexahydro-pyrrolo[3,4-b]pyrrol-5-yl)-pyridin-2-yl]-amine]", "Ki": 64.2}, {"smiles": "CNC1CN(c2ccnc(NCc3ccccn3)c2)C1", "note": "[Example 297, 4-[3-(Methylamino)azetidin-1-yl]-N-(pyridin-2-ylmethyl)pyridin-2-amine]", "Ki": 1560}, {"smiles": "COCCNc1cc(N2CC[C@@H](N)C2)cnn1", "note": "[Example 298, 5-[(3R)-3-Aminopyrrolidin-1-yl]-N-(2-methoxyethyl)pyridazin-3-amine]", "Ki": "> 10000"}, {"smiles": "CNC1CN(c2cnnc(NCCCC(F)(F)F)c2)C1", "note": "[Example 299, 5-[3-(Methylamino)azetidin-1-yl]-N-(4,4,4-trifluorobutyl)pyridazin-3-amine]", "Ki": 146}, {"smiles": "CN(CCN)c1cnnc(NCC(C)(C)C)c1", "note": "[Example 300, N^5-(2-Aminoethyl)-N^3-(2,2-dimethylpropyl)-N^5-methylpyridazine-3,5-diamine]", "Ki": 1860}, {"smiles": "CNC1CN(c2cnnc(NC3C[C@H]4C[C@@H](C3C)C4(C)C)c2)C1", "note": "(stereo partly drawn) [Example 301, 5-[3-(Methylamino)azetidin-1-yl]-N-[(1S,5R)-2,6,6-trimethylbicyclo[3.1.1]hept-3-yl]pyridazin-3-amine]", "Ki": 202}, {"smiles": "CN(CCN)c1cnnc(NC2CC3CCC2C3)c1", "note": "(stereo not drawn) [Example 302, N^5-(2-Amino-ethyl)-N^3-bicyclo[2.2.1]hept-2yl-N^5-methylpyridazine-3,5-diamine]", "Ki": 98.1}, {"smiles": "CN(CCN)c1cnnc(NCC2CCCC2)c1", "note": "[Example 303, N^5-(2-Aminoethyl)-N^3-(cyclopentylmethyl)-N^5-methylpyridazine-3,5-diamine]", "Ki": 417}, {"smiles": "OCCCNc1cc(N2C[C@H]3CCN[C@H]3C2)cnn1", "note": "[Example 305, 3-({5-[(3aR,6aR)-Hexahydropyrrolo[3,4-b]pyrrol-5(1H)-yl]pyridazin-3-yl}amino)propan-1-ol]", "Ki": 1060}, {"smiles": "CC1(C)[C@H]2CC[C@H](CNc3cc(N4CC(N)C4)cnn3)[C@@H]1C2", "note": "[Example 306, 5-(3-Aminoazetidin-1-yl)-N-{[(1S,2S,5S)-6,6-dimethylbicyclo[3.1.1]hept-2-yl]methyl}pyridazin-3-amine]", "Ki": 7220}, {"smiles": "CC(C)(C)CNc1cc(N2CCCNCC2)cnn1", "note": "[Example 307, 5-(1,4-Diazepan-1-y1)-N-(2,2-dimethylpropyl)pyridazin-3-amine]", "Ki": 536}, {"smiles": "c1nnc(NC2CC2)cc1N1C[C@H]2CCN[C@H]2C1", "note": "[Example 309, N-Cyclopropyl-5-[(3aR,6aR)-hexahydropyrrolo[3,4-b]pyrrol-5(1H)-yl]pyridazin-3-amine]", "Ki": 1600}, {"smiles": "CCCCNc1cc(N2C[C@H]3CCN[C@H]3C2)cnn1", "note": "[Example 310, N-Butyl-5-[(3aR,6aR)-hexahydropyrrolo[3,4-b]pyrrol-5(1H)-yl]pyridazin-3-amine]", "Ki": 621}, {"smiles": "c1cc(N2CCNCC2)cc(NCC2CCCC2)n1", "note": "[Example 311, N-(Cyclopentylmethyl)-4-piperazin-1-ylpyridin-2-amine]", "Ki": 226}, {"smiles": "N[C@@H]1CCN(c2cnnc(NCC3CC4CCC3C4)c2)C1", "note": "(stereo partly drawn) [Example 312, 5-[(3R)-3-Aminopyrrolidin-1-yl]-N-(bicyclo[2.2.1]hept-2-ylmethyl)pyridazin-3-amine]", "Ki": 547}, {"smiles": "N[C@@H]1CCN(c2cnnc(NCCCO)c2)C1", "note": "[Example 313, 3-({5-[(3R)-3-Aminopyrrolidin-1-yl]pyridazin-3-yl}amino)propan-1-ol]", "Ki": "> 10000"}, {"smiles": "OCCCNc1cc(N2CCNCC2)cnn1", "note": "[Example 314, 3-[(5-Piperazin-1-ylpyridazin-3-yl)amino]propan-1-ol]", "Ki": "> 10000"}, {"smiles": "c1nnc(NC2CC2)cc1N1CCNCC1", "note": "[Example 315, N-Cyclopropyl-5-piperazin-1-ylpyridazin-3-amine]", "Ki": 1920}, {"smiles": "c1nnc(NCC2CCCC2)cc1N1CCCNCC1", "note": "[Example 316, N-(Cyclopentylmethyl)-5-(1,4-diazepan-1-yl)pyridazin-3-amine]", "Ki": 275}, {"smiles": "N[C@H]1CCN(c2cnnc(NCC3CCCC3)c2)C1", "note": "[Example 317, 5-[(3S)-3-Aminopyrrolidin-1-yl]-N-(cyclopentylmethyl)pyridazin-3-amine]", "Ki": 930}]}]}
